# Test results as given in US11752120B2, “Use of succinic acid in increasing sensitivity of bacteria to antibiotics” (SUN YAT-SEN UNIVERSITY, priority 2018, dated 2023).
# Legend:
# E. coli K12 = test: Minimum inhibitory concentration (MIC), NCCLS method, control strain; type: cell-based, Escherichia coli; conditions: no unit in table, MIC in μg/mL
# Description: (§1) Escherichia coli (E. coli) are one of the most common bacteria in the clinic. 30 strains of E. coli obtained from the clinic were named YT1-30. The minimum inhibitory concentrations (MIC) of 8 antibiotics against these 30 clinically obtained E. coli was detected according to the NCCLS method, and E. coli K12 was used as a control.
# [1] = test system: clinical Escherichia coli YT1-30; test: Minimum inhibitory concentration (MIC), NCCLS method, 30 clinical strains; type: cell-based; set-up: Minimum inhibitory concentration (MIC): unit not given here
# Description: as §1
# [2] = test system: clinical Escherichia coli YT16 and YT28; test: Viable bacteria count / survival rate after antibiotic with or without succinic acid in M9 medium; type: cell-based
# Method: A single colony of clinical bacteria was picked from a solid LB plate and was inoculated in 5 mL LB liquid medium for culture at 37° C. and 200 rpm for 16 hours, and then was inoculated in 100 mL LB liquid medium at a ratio of 1:100 (v/v) and was cultured at 37° C. until OD600 value was 1.0. 20 mL of bacterial solution was collected and centrifuged at 8000 rpm for 5 minutes, the supernatant was cleared and bacterial cells were washed with an equal volume of 0.85% normal saline, and finally the bacterial cells were suspended with 1×M9 basic medium (containing 10 mM acetate), the OD value of the bacterial solution was adjusted to 0.5, and then 5 mL of the bacterial solution was aliquoted in a test tube for the following experimental studies.
# The survival rates of the clinical bacteria in medium with adding succinic acid and without adding succinic acid at the same antibiotic concentration were compared.
# The formula is the number of viable bacteria when different concentrations of succinic acid were added/the number of viable bacteria without adding succinic acid×100%.
# In order to study whether clinical Escherichia coli has effect on penicillin antibiotics after adding succinic acid, two clinical Escherichia coli samples of YT16 and YT28 were prepared according to step 2 in Embodiment 1, 20 mM succinic acid and 3 kinds of penicillin were added respectively, […], the number of viable bacteria was counted, and the survival rate was calculated. […]
# [3] = test system: clinical Escherichia coli biofilm; test: In vitro bactericidal assay of biofilm; type: cell-based; conditions: catheter biofilm, 6 hours; succinic acid 580 mg/kg; ampicillin 2000 mg/kg for YT16, 500 mg/kg for YT28
# Method: […] of clinical Escherichia coli (YT3, YT11, YT12, YT16, YT17, YT21, YT22, YT23, YT28, YT33) were picked, monocloned into LB medium, and cultured overnight, then were transferred into 2 mL fresh LB medium at 1:200, and added with a 6 mm PE-50 biological catheter that was sterilized by UV, and cultured in a 37° C. incubator for culture for 24 hours. The bacterial solution was replaced with 1 mL of LB medium daily, and the catheter was continuously cultured for 3 days. The prepared biofilm was washed 5 times with 1 mL of sterile normal saline, and then placed in a 1.5 mL EP tube.
# The assay was divided into 4 groups: normal saline control group, succinic acid group, ampicillin group, ampicillin+succinic acid group, and the catheters were treated in a shaker at 37° C. and 200 rpm. A dosage of succinic acid was 580 mg/kg, and a dosage of ampicillin was 2000 mg/kg for YT16, and 500 mg/kg for YT28. After 6 hours, ultrasonic cleaning was conducted for 15 minutes, the biofilm on the catheter was eluted and thoroughly mixed, and after gradient dilution, spot plate counting was performed. The formula for calculating the bacterial survival rate is: number of viable bacteria in each group/number of viable bacteria in the control group×100%.
compound,measurement,setting,value
CC1(C)S[C@@H]2[C@H](NC(=O)[C@H](N)c3ccccc3)C(=O)N2[C@H]1C(=O)O [Ampicillin],Minimum inhibitory concentration (MIC),E. coli K12,6.1
same,Minimum inhibitory concentration (MIC),[1]; strain YT1,25000
same,Minimum inhibitory concentration (MIC),[1]; strain YT2,6250
same,Minimum inhibitory concentration (MIC),[1]; strain YT3,390.625
same,Minimum inhibitory concentration (MIC),[1]; strain YT4,6250
same,Minimum inhibitory concentration (MIC),[1]; strain YT5,25000
same,Minimum inhibitory concentration (MIC),[1]; strain YT6,1562.5
same,Minimum inhibitory concentration (MIC),[1]; strain YT7,1562.5
same,Minimum inhibitory concentration (MIC),[1]; strain YT8,1562.5
same,Minimum inhibitory concentration (MIC),[1]; strain YT9,1562.5
same,Minimum inhibitory concentration (MIC),[1]; strain YT10,6250
same,Minimum inhibitory concentration (MIC),[1]; strain YT11,1562.5
same,Minimum inhibitory concentration (MIC),[1]; strain YT12,6250
same,Minimum inhibitory concentration (MIC),[1]; strain YT13,6250
same,Minimum inhibitory concentration (MIC),[1]; strain YT14,6250
same,Minimum inhibitory concentration (MIC),[1]; strain YT15,6250
same,Minimum inhibitory concentration (MIC),[1]; strain YT16,6250
same,Minimum inhibitory concentration (MIC),[1]; strain YT17,6250
same,Minimum inhibitory concentration (MIC),[1]; strain YT18,6250
same,Minimum inhibitory concentration (MIC),[1]; strain YT19,1562.5
same,Minimum inhibitory concentration (MIC),[1]; strain YT20,1562.5
same,Minimum inhibitory concentration (MIC),[1]; strain YT21,1562.5
same,Minimum inhibitory concentration (MIC),[1]; strain YT22,6250
same,Minimum inhibitory concentration (MIC),[1]; strain YT23,1562.5
same,Minimum inhibitory concentration (MIC),[1]; strain YT24,6250
same,Minimum inhibitory concentration (MIC),[1]; strain YT25,6250
same,Minimum inhibitory concentration (MIC),[1]; strain YT26,6250
same,Minimum inhibitory concentration (MIC),[1]; strain YT27,6250
same,Minimum inhibitory concentration (MIC),[1]; strain YT28,1562.5
same,Minimum inhibitory concentration (MIC),[1]; strain YT29,6250
same,Minimum inhibitory concentration (MIC),[1]; strain YT30,25000
same,survival rate,"[2]; YT16, 2.5 mg/mL ampicillin without adding succinic acid, 4 hours",61.04%
same,survival rate,"[2]; YT16, 5 mg/mL ampicillin without adding succinic acid, 4 hours",34.53%
same,survival rate,"[2]; YT16, 10 mg/mL ampicillin without adding succinic acid, 4 hours (FIG. 1)",25.99%
same,survival rate,"[2]; YT16, 10 mg/mL ampicillin without adding succinic acid, 4 hours (FIG. 3)",73.8%
same,survival rate,"[2]; YT16, 20 mg/mL ampicillin without adding succinic acid, 4 hours",12.47%
same,survival rate,"[2]; YT16, only 10 mg/mL ampicillin added, 1 hour (FIG. 2)",93.89%
same,survival rate,"[2]; YT16, only 10 mg/mL ampicillin added, 4 hours (FIG. 2)",47.34%
same,survival rate,"[2]; YT16, only 10 mg/mL ampicillin added, 7 hours (FIG. 2)",18.45%
same,survival rate,"[2]; YT28, 2.5 mg/mL ampicillin without adding succinic acid, 4 hours",68.38%
same,survival rate,"[2]; YT28, 5 mg/mL ampicillin without adding succinic acid, 4 hours",56.25%
same,survival rate,"[2]; YT28, 10 mg/mL ampicillin without adding succinic acid, 4 hours (FIG. 1)",35.87%
same,survival rate,"[2]; YT28, 10 mg/mL ampicillin without adding succinic acid, 4 hours (FIG. 3)",86.21%
same,survival rate,"[2]; YT28, 20 mg/mL ampicillin without adding succinic acid, 4 hours",27.09%
same,survival rate,"[2]; YT28, only 10 mg/mL ampicillin added, 1 hour (FIG. 2)",96.79%
same,survival rate,"[2]; YT28, only 10 mg/mL ampicillin added, 4 hours (FIG. 2)",26.79%
same,survival rate,"[2]; YT28, only 10 mg/mL ampicillin added, 7 hours (FIG. 2)",14.18%
same,"clearance of clinical Escherichia coli on the biofilms, used alone",[3],cannot clear
CC[C@H]1OC(=O)[C@H](C)[C@@H](O[C@H]2C[C@@](C)(OC)[C@@H](O)[C@H](C)O2)[C@H](C)[C@@H](O[C@@H]2O[C@H](C)C[C@H](N(C)C)[C@H]2O)[C@](C)(O)C[C@@H](C)/C(=N\OCOCCOC)[C@H](C)[C@@H](O)[C@]1(C)O [Roxithromycin],Minimum inhibitory concentration (MIC),E. coli K12,9.765
same,Minimum inhibitory concentration (MIC),[1]; strain YT1,39.0625
same,Minimum inhibitory concentration (MIC),[1]; strain YT2,625
same,Minimum inhibitory concentration (MIC),[1]; strain YT3,625
same,Minimum inhibitory concentration (MIC),[1]; strain YT4,156.25
same,Minimum inhibitory concentration (MIC),[1]; strain YT5,625
same,Minimum inhibitory concentration (MIC),[1]; strain YT6,625
same,Minimum inhibitory concentration (MIC),[1]; strain YT7,625
same,Minimum inhibitory concentration (MIC),[1]; strain YT8,625
same,Minimum inhibitory concentration (MIC),[1]; strain YT9,625
same,Minimum inhibitory concentration (MIC),[1]; strain YT10,625
same,Minimum inhibitory concentration (MIC),[1]; strain YT11,625
same,Minimum inhibitory concentration (MIC),[1]; strain YT12,625
same,Minimum inhibitory concentration (MIC),[1]; strain YT13,625
same,Minimum inhibitory concentration (MIC),[1]; strain YT14,2500
same,Minimum inhibitory concentration (MIC),[1]; strain YT15,2500
same,Minimum inhibitory concentration (MIC),[1]; strain YT16,625
same,Minimum inhibitory concentration (MIC),[1]; strain YT17,625
same,Minimum inhibitory concentration (MIC),[1]; strain YT18,625
same,Minimum inhibitory concentration (MIC),[1]; strain YT19,625
same,Minimum inhibitory concentration (MIC),[1]; strain YT20,625
same,Minimum inhibitory concentration (MIC),[1]; strain YT21,625
same,Minimum inhibitory concentration (MIC),[1]; strain YT22,625
same,Minimum inhibitory concentration (MIC),[1]; strain YT23,625
same,Minimum inhibitory concentration (MIC),[1]; strain YT24,625
same,Minimum inhibitory concentration (MIC),[1]; strain YT25,625
same,Minimum inhibitory concentration (MIC),[1]; strain YT26,625
same,Minimum inhibitory concentration (MIC),[1]; strain YT27,625
same,Minimum inhibitory concentration (MIC),[1]; strain YT28,2500
same,Minimum inhibitory concentration (MIC),[1]; strain YT29,625
same,Minimum inhibitory concentration (MIC),[1]; strain YT30,156.25
